Reference: PubChem BioAssay (NCI)
“And” between values parts separate entries of the source, which are not always exact repeats. Equal entries are not always repeated.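 Grown in 96-well plates, cells were treated for 48 hours with each compound at five concentrations. Insufficient inhibition: endpoint recorded as highest concentration tested. At the GI50, growth is halved. TGI: total growth inhibition.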

Columns and labels:
Test in all cases: inhibition of tumour cell growth, NCI panel, 48 h
BT-549 breast = test system: BT-549 breast
HS 578T breast = test system: HS 578T breast
LOX IMVI melanoma = test system: LOX IMVI melanoma
M14 melanoma = test system: M14 melanoma
MCF7 breast = test system: MCF7 breast
PC-3 prostate = test system: PC-3 prostate
T-47D breast = test system: T-47D breast
U251 CNS = test system: U251 CNS
UACC-62 melanoma = test system: UACC-62 melanoma
UO-31 renal = test system: UO-31 renal

Row | Compound | GI50 (BT-549 breast) | TGI (BT-549 breast) | GI50 (HS 578T breast) | TGI (HS 578T breast) | GI50 (LOX IMVI melanoma) | TGI (LOX IMVI melanoma) | GI50 (M14 melanoma) | TGI (M14 melanoma) | GI50 (MCF7 breast) | TGI (MCF7 breast) | GI50 (PC-3 prostate) | TGI (PC-3 prostate) | GI50 (T-47D breast) | TGI (T-47D breast) | GI50 (U251 CNS) | TGI (U251 CNS) | GI50 (UACC-62 melanoma) | TGI (UACC-62 melanoma) | GI50 (UO-31 renal) | TGI (UO-31 renal)
1 | CCSc1ncc(Br)c(Sc2nc(N)nc3nc[nH]c23)n1 | 4.11 µM | 67 µM | 7.47 µM | > 100 µM | 2.39 µM | > 100 µM | 1.79 µM | 8.68 µM | 3.04 µM | > 100 µM | 4.77 µM | > 100 µM | 3.07 µM | > 100 µM | 18.1 µM | > 100 µM | 2.37 µM | 20.4 µM | 2.3 µM | > 100 µM
2 | Cc1ccc(C2=C(Cl)C(=O)C(c3ccc(C)cc3)=C(Cl)C2=O)cc1 | – | > 100 µM | – | > 100 µM | – | > 100 µM | – | > 100 µM | – | > 100 µM | – | > 100 µM | – | > 100 µM | – | > 100 µM | – | > 100 µM | – | > 100 µM
3 | C=CCN=C(N/N=C/c1ccc([N+](=O)[O-])o1)NS(=O)(=O)c1cc(C(=O)Nc2ccccc2)c(Cl)cc1SCC(N)=O | 10.4 µM | 31.8 µM | 15.6 µM | 66.3 µM | 17 µM | 42.1 µM | 69.8 µM | > 100 µM | 25.2 µM | 77.6 µM | 33 µM | > 100 µM | 23.1 µM | > 100 µM | 22.9 µM | 95.8 µM | 17.3 µM | 33.3 µM | > 100 µM | > 100 µM
4 | COc1cc(/C=C\c2cc(OC)c(OC)c(OC)c2)cc(NS(=O)(=O)c2ccc(Cl)cc2)c1OC | 0.966 µM | 77 µM | 0.351 µM | > 100 µM | 0.566 µM | > 100 µM | 0.391 µM | 22.9 µM | 0.375 µM | > 100 µM | 0.395 µM | > 100 µM | 0.381 µM | > 100 µM | 0.461 µM | 20.7 µM | 0.435 µM | 36.7 µM | 0.696 µM | > 100 µM
5 | N/C(=N\C(N)=N\c1nc2ccccc2s1)c1cnccn1 | 3.97 µM | 96 µM | 4.7 µM | > 100 µM | 3.47 µM | > 100 µM | 3.21 µM | > 100 µM | 3.16 µM | > 100 µM | 3.78 µM | > 100 µM | 2.24 µM | 6.22 µM | 2.96 µM | 14.9 µM | 1.74 µM | 3.52 µM | 2.05 µM | 4.87 µM
6 | COc1ccc(/C(C)=C(\c2ccc(Cl)cc2)c2ccc(OCCN3CCCCCC3)cc2)cc1F | 2.79 µM | 6.74 µM | 2.69 µM | 6.51 µM | 2.51 µM | 4.82 µM | 2.74 µM | 7.18 µM | 3.59 µM | 11.1 µM | 3.8 µM | 15 µM | 3.47 µM | 15.1 µM | 2.79 µM | 7.59 µM | 3.52 µM | 8.02 µM | 2.17 µM | 4.47 µM
7 | C=C(Cn1c2ccccc2c(=O)c2ccccc21)c1ccc(C(=O)Nc2ccccc2N)cc1 | 4.07 µM | > 100 µM | > 100 µM | > 100 µM | 50.4 µM | > 100 µM | 12.2 µM | > 100 µM | > 100 µM | > 100 µM | 0.761 µM | > 100 µM | 2.8 µM | > 80 µM | 8.1 µM | > 100 µM | > 100 µM | > 100 µM | 2.64 µM | > 100 µM
8 | Nc1nc(=S)c2[nH]cnc2[nH]1 | 0.716 µM and 1.4 µM and 1.85 µM | – | 4.13 µM | – | 0.136 µM and 0.488 µM | 2.23 µM and 8.64 µM and 19.4 µM | 0.413 µM and 0.677 µM | – | 0.325 µM and 0.547 µM and 1.02 µM | – | 1.28 µM and 3.35 µM and 2.83 µM | > 100 µM and 185 µM and > 250 µM | 0.43 µM and 0.964 µM and 1.25 µM | – | 1.49 µM and 3.11 µM | > 100 µM and 241 µM and > 226 µM | 0.295 µM and 0.376 µM and 1.26 µM | – | 0.43 µM and 0.823 µM and 0.488 µM | –
9 | COC(=O)[C@H](Cc1cn(C)cn1)NC(=O)[C@@H](NC(=O)Nc1cc(C(F)(F)F)cc(C(F)(F)F)c1)C(C)C | 2.51 µM | 7.9 µM | 4.83 µM | > 10 µM | 1.74 µM | 3.4 µM | 8.62 µM | > 10 µM | 1.98 µM | 4.67 µM | 4.35 µM | > 10 µM | 3.14 µM | > 10 µM | > 10 µM | > 10 µM | 8.58 µM | > 10 µM | > 10 µM | > 10 µM
